{"source": "patent US7705146B2", "about": "“Hepatitis C inhibitor peptide analogs” (Boehringer Ingelheim International GmbH, priority 2004, dated 2010)", "origin": "cited, not measured here", "system": "hepatitis C virus", "conditions": "two day clinical trial, patients infected with the hepatitis C virus", "data": [{"smiles": "COc1ccc2c(O[C@@H]3C[C@H]4C(=O)N[C@]5(C(=O)O)C[C@H]5/C=C\\CCCCC[C@H](NC(=O)OC5CCCC5)C(=O)N4C3)cc(-c3csc(NC(C)C)n3)nc2c1", "note": "[BILN 2061]", "values": [{"measurement": "reduction of viral loads in patients", "result": "effective in rapidly reducing viral loads"}]}]}
